According to patent publication US7235366B1 (priority 1993, dated 2007):
Read-outs that look alike come from different tables or passages of the source. Residues, ends and D or L forms follow the SMILES beside them.

Key:
cloned mouse δ receptor = target: T1, cloned mouse δ receptor (Mus musculus, UniProt P32300); test: biochemical; format: binding
T1 construct: expressed in transfected cells

[1] = target: T2, mouse delta opioid receptor aspartate 95 to asparagine mutant (Mus musculus, UniProt P32300, D95N); test: Binding to delta receptor mutant with aspartate 95 converted to asparagine, COS-7 cells
T2 construct: expressed in transfected cells; host or cells: COS-7

cloned mouse κ receptor = target: T3, cloned mouse κ receptor (Mus musculus, UniProt P33534); test: biochemical; format: binding
T3 construct: expressed in transfected cells

cloned rat μ receptor = target: T4, cloned rat μ receptor (Rattus norvegicus, UniProt P33535); test: biochemical; format: binding
T4 construct: expressed in transfected cells; host or cells: COS-7 (transient)

κ/δ2eloop chimera = format: binding
MOP2 [2] = target: T5, MOP2 (Mus musculus, UniProt P35377); format: cell-based
T5 construct: expressed in transfected cells; host or cells: COS-7 (transient)

[3] = target: T6, D128N mutant mouse delta opioid receptor (Mus musculus, UniProt P32300, D128N); test: biochemical; format: binding
T6 construct: expressed in transfected cells; host or cells: COS-7 (transient, pCMV6c)

[4] = target: T7, H278N mutant mouse delta opioid receptor (Mus musculus, UniProt P32300, H278N); test: biochemical; format: binding
T7 construct: expressed in transfected cells; host or cells: COS-7 (transient, pCMV6c)

[5] = target: T8, wild-type mouse delta opioid receptor (Mus musculus, UniProt P32300); test: biochemical; format: binding
T8 construct: expressed in transfected cells; host or cells: COS-7 (transient, pCMV6c)

MOP2 [6] = target: T5, MOP2; format: binding
[7] = target: kappa 1-74/delta65-372 chimera (Mus musculus, UniProt P32300+P33534, A193I/A281G/D128E/D204G/D206V/DEL208-209/DEL216-217/DEL300-312/E203D/E218S/E297A/F225V/F314L/G197A/G198V/I133A/I135L/I177L/I191V/I194M/I237V/I243T/I250L/I284V/I285V/I294L/I85V/INS221Y/INS293[…]/K200Q/K254R/K274R/L173A/L184V/L196M/L224T/L275M/L295V/M112L/M226T/M90L/N122E/N268S/R263K/S123T/S188G/S192P/S211M/T110S/T247G/T288A/T321A/V108A/V118K/V129L/V201P/V205A/V232L/V239I/V282A/V83G/Y219P/Y313H)
[8] = target: κ1-78/δ70-372 chimeric receptor (Mus musculus, UniProt P32300+P33534, A193I/A281G/D128E/D204G/D206V/DEL208-209/DEL216-217/DEL300-312/E203D/E218S/E297A/F225V/F314L/G197A/G198V/I133A/I135L/I177L/I191V/I194M/I237V/I243T/I250L/I284V/I285V/I294L/I85V/INS221Y/INS293VIVWTLVDINRRDP/K200Q/K254R/K274R/L173A/L184V/L196M/L224T/L275M/L295V/M112L/M226T/M90L/N122E/N268S/R263K/S123T/S188G/S192P/S211M/T110S/T247G/T288A/T321A/V108A/V118K/V129L/V201P/V205A/V232L/V239I/V282A/V83G/Y219P/Y313H); test: biochemical
[9] = target: T9, cloned human μ opioid receptor (Homo sapiens, UniProt P35372); format: binding
T9 construct: This fragment includes the entire coding region of the human μ opioid receptor; expressed in transfected cells; host or cells: COS-7 (transient, pcDNA3)

[10] = target: T10, cloned rat μ opioid receptor (Rattus norvegicus, UniProt P33535); format: binding
T10 construct: expressed in transfected cells; host or cells: COS-7 (transient)

[11] = read-out: Binding potencies (Ki-nM) δ RECEPTOR [^3H] naltrindole
[12] = read-out: Binding potencies (Ki-nM) κ RECEPTOR [^3H] U-69, 593
[13] = read-out: Binding potencies (Ki-nM) μ RECEPTOR [^3H] DAMGO
[14] = Binding potencies (Ki-nM) μ RECEPTOR [^3H] DAMGO

T8 sequence (P32300 whole entry): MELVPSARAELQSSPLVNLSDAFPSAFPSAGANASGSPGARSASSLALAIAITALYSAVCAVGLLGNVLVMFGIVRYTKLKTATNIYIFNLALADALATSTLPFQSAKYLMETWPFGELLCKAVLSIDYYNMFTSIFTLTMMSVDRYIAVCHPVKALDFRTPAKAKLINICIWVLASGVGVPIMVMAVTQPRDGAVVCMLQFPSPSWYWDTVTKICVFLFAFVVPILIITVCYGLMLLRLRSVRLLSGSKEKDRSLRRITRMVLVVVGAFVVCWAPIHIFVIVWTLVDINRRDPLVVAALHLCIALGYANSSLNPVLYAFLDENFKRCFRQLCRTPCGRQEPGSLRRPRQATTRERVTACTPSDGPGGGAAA
T1 sequence (P32300 whole entry): as above
T4 sequence (P33535 whole entry): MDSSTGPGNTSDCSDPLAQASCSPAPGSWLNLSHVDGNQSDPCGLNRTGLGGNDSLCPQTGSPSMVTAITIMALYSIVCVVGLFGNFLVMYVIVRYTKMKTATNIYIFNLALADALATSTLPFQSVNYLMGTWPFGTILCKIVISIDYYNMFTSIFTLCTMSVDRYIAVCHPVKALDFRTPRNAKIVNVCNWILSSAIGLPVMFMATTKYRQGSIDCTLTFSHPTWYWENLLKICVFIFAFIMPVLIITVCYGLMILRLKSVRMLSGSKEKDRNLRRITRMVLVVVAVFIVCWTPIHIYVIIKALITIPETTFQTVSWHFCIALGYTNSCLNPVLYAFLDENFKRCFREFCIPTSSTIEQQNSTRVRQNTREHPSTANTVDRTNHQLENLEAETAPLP
T5 sequence (P35377 whole entry): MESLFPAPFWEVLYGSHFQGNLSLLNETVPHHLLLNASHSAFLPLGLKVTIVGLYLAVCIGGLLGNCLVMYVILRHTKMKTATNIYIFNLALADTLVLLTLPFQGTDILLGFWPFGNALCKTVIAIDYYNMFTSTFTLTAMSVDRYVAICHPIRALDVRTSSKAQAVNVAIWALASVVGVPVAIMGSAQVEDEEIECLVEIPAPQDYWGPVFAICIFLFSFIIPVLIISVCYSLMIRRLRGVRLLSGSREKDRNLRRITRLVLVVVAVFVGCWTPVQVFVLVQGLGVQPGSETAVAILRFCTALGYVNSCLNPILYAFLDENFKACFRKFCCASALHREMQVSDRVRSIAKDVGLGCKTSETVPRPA
T3 sequence (P33534 whole entry): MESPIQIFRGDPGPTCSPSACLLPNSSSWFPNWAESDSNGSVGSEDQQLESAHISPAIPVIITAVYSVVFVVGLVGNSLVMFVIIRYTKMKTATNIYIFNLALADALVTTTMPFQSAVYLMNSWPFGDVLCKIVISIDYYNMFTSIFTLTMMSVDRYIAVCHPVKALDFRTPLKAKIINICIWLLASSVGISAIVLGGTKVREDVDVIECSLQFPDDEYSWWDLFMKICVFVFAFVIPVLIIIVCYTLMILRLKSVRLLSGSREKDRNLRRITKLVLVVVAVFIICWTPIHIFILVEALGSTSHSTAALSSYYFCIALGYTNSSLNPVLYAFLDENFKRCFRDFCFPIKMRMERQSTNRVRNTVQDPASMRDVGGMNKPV
T7 sequence (P32300 whole entry H278N): as the sequence (P32300 whole entry) above, with H278N counted along it
T2 sequence (P32300 whole entry D95N): as the sequence (P32300 whole entry) above, with D95N counted along it
T6 sequence (P32300 whole entry D128N): as the sequence (P32300 whole entry) above, with D128N counted along it
T9 sequence (P35372 whole entry, the tested form may be a part): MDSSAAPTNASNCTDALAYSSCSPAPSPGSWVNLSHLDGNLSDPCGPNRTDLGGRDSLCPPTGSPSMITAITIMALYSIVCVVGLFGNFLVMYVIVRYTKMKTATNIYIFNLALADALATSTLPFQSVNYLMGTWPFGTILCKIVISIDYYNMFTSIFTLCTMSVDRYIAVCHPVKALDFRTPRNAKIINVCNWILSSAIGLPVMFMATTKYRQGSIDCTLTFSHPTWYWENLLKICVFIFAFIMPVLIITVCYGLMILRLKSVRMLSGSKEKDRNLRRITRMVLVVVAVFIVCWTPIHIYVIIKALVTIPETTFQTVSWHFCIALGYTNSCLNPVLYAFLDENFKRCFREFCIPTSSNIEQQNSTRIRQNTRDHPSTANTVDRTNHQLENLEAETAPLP
T10 sequence (P33535 whole entry): as the sequence (P33535 whole entry) above
Sequence of kappa 1-74/delta65-372 chimera (P33534+P32300 fused with the stated changes): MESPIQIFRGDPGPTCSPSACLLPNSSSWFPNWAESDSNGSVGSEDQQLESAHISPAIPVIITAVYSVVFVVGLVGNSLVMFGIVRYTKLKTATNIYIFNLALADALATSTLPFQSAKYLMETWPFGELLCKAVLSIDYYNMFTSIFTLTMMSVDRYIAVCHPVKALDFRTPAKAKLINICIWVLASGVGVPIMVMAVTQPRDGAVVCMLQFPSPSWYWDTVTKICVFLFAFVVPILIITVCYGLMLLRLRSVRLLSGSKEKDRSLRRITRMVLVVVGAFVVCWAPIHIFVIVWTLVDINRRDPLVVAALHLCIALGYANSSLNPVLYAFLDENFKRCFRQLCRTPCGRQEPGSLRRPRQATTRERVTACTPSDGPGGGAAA
Sequence of κ1-78/δ70-372 chimeric receptor (P33534+P32300 fused with the stated changes): as above

O=C1/C(=C/c2ccccc2)C[C@@]2(O)[C@H]3Cc4ccc(O)c5c4[C@@]2(CCN3CC2CC2)[C@H]1O5 [BNTX, 7-Benyllidenenaltrexone]
Ki (cloned mouse δ receptor; [11]): 0.66 nM
Affinity of aspartate 95 mutant and wild-type delta receptors compared [1]: similar
Ki (cloned mouse κ receptor; [12]): 55 nM
Ki (cloned rat μ receptor; [13]): 18 nM

C[C@@H](O)[C@H](NC(=O)[C@H]1NC(=O)[C@H]([C@@H](C)O)NC(=O)[C@H](CCCN)NC(=O)[C@@H](Cc2c[nH]c3ccccc23)NC(=O)[C@H](Cc2ccc(O)cc2)NC(=O)[C@@H](NC(=O)[C@H](N)Cc2ccccc2)CSSC1(C)C)C(N)=O [CTOP, D-Phe-Cys-Tyr-D-Trp-Orn-Thr-Pen-Thr-NH2]
Ki (cloned mouse δ receptor): > 1000 nM
Ki (cloned mouse κ receptor): > 1000 nM

CC(C)C[C@H](NC(=O)[C@H](Cc1ccccc1)NC(=O)CNC(=O)[C@@H](CO)NC(=O)[C@@H](N)Cc1ccc(O)cc1)C(=O)N[C@H](C(=O)O)[C@@H](C)O [DSLET, [D-Ser^2, Leu^5]enkephalin-Thr^6]
Ki (cloned rat μ receptor; [14]): 39 nM

CN1CC[C@@]23CCCC[C@@H]2[C@@H]1Cc1ccc(O)cc13 [Dextrorphan]
Ki (cloned mouse δ receptor): > 1000 nM
Ki (cloned mouse κ receptor): > 1000 nM

CC[C@H](C)[C@H](NC(=O)[C@H](CCCNC(=N)N)NC(=O)[C@H](CCCNC(=N)N)NC(=O)[C@H](CC(C)C)NC(=O)[C@H](Cc1ccccc1)NC(=O)CNC(=O)CNC(=O)[C@@H](N)Cc1ccc(O)cc1)C(=O)N[C@@H](CCCNC(=N)N)C(=O)N1CCC[C@H]1C(=O)N[C@@H](CCCCN)C(=O)N[C@@H](CC(C)C)C(=O)N[C@@H](CCCCN)C(=O)N[C@@H](Cc1c[nH]c2ccccc12)C(=O)N[C@@H](CC(=O)O)C(=O)N[C@@H](CC(N)=O)C(=O)N[C@@H](CCC(N)=O)C(=O)O [Dynorphin]
Binding to the κ/δ2eloop chimera (κ/δ2eloop chimera): did not bind

CC[C@]12CCN(CC3CC3)[C@H](C(=O)c3ccc(O)cc31)[C@@H]2C [Ethylketocyclazocine]
Ki (cloned mouse δ receptor): 101 nM
Effect on forskolin-stimulated cAMP formation, MOP2 (MOP2 [2]): no effect
Ki (cloned rat μ receptor): 3.1 nM

CN(C(=O)Cc1ccc(Cl)c(Cl)c1)C(CN1CCCC1)c1cccc(OCC(=O)O)c1 (centres unmarked) [ICI 204, 448]
Ki (cloned mouse δ receptor; [11]): > 1000 nM
Ki (cloned mouse κ receptor; [12]): 0.71 nM
Ki (cloned rat μ receptor; [13]): > 1000 nM

CN1CC[C@]23CCCC[C@H]2[C@H]1Cc1ccc(O)cc13 [Levorphanol]
Ki (cloned mouse δ receptor): 5 nM
Ki [3]: 4380 nM
Ki [4]: 2.8 nM
Effect on forskolin-stimulated cAMP formation, MOP2 (MOP2 [2]): no effect
Ki [5]: 187 nM
Ki (cloned mouse κ receptor): 6.5 nM

Oc1ccc2c3c1O[C@H]1c4oc5ccccc5c4C[C@@]4(O)[C@@H](C2)N(CC2CC2)CC[C@]314 [NTB]
Ki (cloned mouse δ receptor; [11]): 0.013 nM
Ki ([3]; read-out: Potencies of Antagonist binding, D128N mutant (Ki values in nM)): 0.07 nM
Affinity of aspartate 95 mutant and wild-type delta receptors compared [1]: similar
Ki ([4]; read-out: Potencies of Antagonist binding, H278N mutant (Ki values in nM)): 0.03 nM
Ki ([5]; read-out: Potencies of Antagonist binding, Wild-type (Ki values in nM)): 0.04 nM
Ki (cloned mouse κ receptor; [12]): 13 nM
Ki (cloned rat μ receptor; [13]): 12 nM

CN1CC[C@]23c4c5ccc(O)c4O[C@H]2C(=O)C2(Cc4ccccc4C2)C[C@@]3(O)[C@H]1C5 [SIOM, 7-spiroindino-oxymorphone]
Ki ([3]; read-out: Potencies of Agonists to Bind, D128N mutant (Ki values in nM)): 1220 nM
Ki ([4]; read-out: Potencies of Agonists to Bind, H278N mutant (Ki values in nM)): 1.8 nM
Ki ([5]; read-out: Potencies of Agonists to Bind, Wild-type (Ki values in nM)): 46 nM
Ki (cloned mouse κ receptor; [12]): > 1000 nM
Ki (cloned rat μ receptor; [13]): 33 nM

C[C@@H](NC(=O)[C@@H](N)Cc1ccc(O)cc1)C(=O)NCC(=O)N(C)[C@@H](Cc1ccccc1)C(=O)NCCO [[^3H]DAMGO]
Specific binding of radioligand to MOP2 (MOP2 [6]): did not bind specifically

Oc1ccc2c3c1O[C@H]1c4[nH]c5ccccc5c4C[C@@]4(O)[C@@H](C2)N(CC2CC2)CC[C@]314 [[^3H]naltrindole]
Kd (cloned mouse δ receptor): 0.18 nM
Kd [3]: 1.3 ± 0.6 nM
Kd [4]: 0.2 ± 0.1 nM
Specific binding of radioligand to MOP2 (MOP2 [6]): did not bind specifically
Binding of radioligand to the kappa 1-74/delta65-372 chimera [7]: potently bound
Kd [5]: 0.6 ± 0.2 nM

CC(C)=CCN1CCC2(C)c3cc(O)ccc3CC1C2C (centres unmarked) [^3H-pentazocine]
Specific binding of radioligand to MOP2 (MOP2 [6]): did not bind specifically

COc1ccc2c3c1O[C@H]1[C@@H](O)C=C[C@H]4[C@@H](C2)N(C)CC[C@@]341 [codeine]
Ki (cloned mouse δ receptor): > 1000 nM
Effect on forskolin-stimulated cAMP formation, MOP2 (MOP2 [2]): no effect
Ki (cloned mouse κ receptor): > 1000 nM

CC[C@H](C)[C@H](NC(=O)[C@H](C)NC(=O)[C@H](CC(N)=O)NC(=O)[C@H](CCCCN)NC(=O)[C@H](Cc1ccccc1)NC(=O)[C@H](CC(C)C)NC(=O)[C@@H](NC(=O)[C@@H](NC(=O)[C@H](CC(C)C)NC(=O)[C@@H]1CCCN1C(=O)[C@@H](NC(=O)[C@H](CCC(N)=O)NC(=O)[C@H](CO)NC(=O)[C@H](CCCCN)NC(=O)[C@H](CCC(=O)O)NC(=O)[C@H](CO)NC(=O)[C@@H](NC(=O)[C@H](CCSC)NC(=O)[C@H](Cc1ccccc1)NC(=O)CNC(=O)CN)[C@@H](C)O)[C@@H](C)O)C(C)C)[C@@H](C)O)C(=O)N[C@H](C(=O)N[C@@H](CCCCN)C(=O)N[C@@H](CC(N)=O)C(=O)N[C@@H](C)C(=O)N[C@@H](Cc1ccc(O)cc1)C(=O)N[C@@H](CCCCN)C(=O)N[C@@H](CCCCN)C(=O)NCC(=O)N[C@@H](CCC(=O)O)C(=O)O)[C@@H](C)CC [des-Tyr^1-β-endorphin] (H-GGFMTSEKSQTPLVTLFKNAIIKNAYKKGE-OH; N-terminus and C-terminus assumed)
Ki (cloned mouse δ receptor; [11]): > 1000 nM
Ki (cloned mouse κ receptor; [12]): > 1000 nM
Ki (cloned rat μ receptor; [13]): > 1000 nM

CCC(=O)C(CC(C)N(C)C)(c1ccccc1)c1ccccc1 (centres unmarked) [methadone]
Effect on forskolin-stimulated cAMP formation, MOP2 (MOP2 [2]): no effect

NC(=O)[C@@H]1CCCN1C(=O)[C@H](Cc1ccccc1)NC(=O)[C@@H]1CCCN1C(=O)[C@@H](N)Cc1ccc(O)cc1 [morphiceptin] (H-YPFP-NH2)
Ki (cloned mouse δ receptor): > 1000 nM
Ki (cloned mouse κ receptor): > 1000 nM
Ki (cloned rat μ receptor; Affinities for the cloned μ receptor): 10 to 100 nM
Ki (cloned rat μ receptor; [14]): 56 nM

CN1CC[C@]23c4c5ccc(O)c4O[C@H]2[C@@H](O)C=C[C@H]3[C@H]1C5 [morphine]
Effect on forskolin-stimulated cAMP formation, MOP2 (MOP2 [2]): no effect

C=CCN1CC[C@]23c4c5ccc(O)c4O[C@H]2[C@@H](O)C=C[C@H]3[C@H]1C5 [nalorphine]
Ki (cloned mouse κ receptor): 1.1 nM
Ki (cloned rat μ receptor): 0.97 nM

Oc1ccc2c3c1O[C@H]1c4[nH]c5ccccc5c4C[C@@]4(O)[C@@H](C2)N(CC2CC2)CC[C@]314 [naltrindole]
IC50 [8]: 0.25 nM
Ki [3]: 5.6 nM
Affinity of aspartate 95 mutant and wild-type delta receptors compared [1]: similar
Ki [4]: 0.5 nM
Ki [5]: 1.4 nM
Ki (cloned mouse κ receptor): 66 nM

Oc1ccc2c3c1O[C@H]1c4[nH]c5c(c4C[C@@]4(O)[C@@H](C2)N(CC2CC2)CC[C@]314)C[C@@]1(O)[C@H]2Cc3ccc(O)c4c3[C@@]1(CCN2CC1CC1)[C@H]5O4 [nor-BNI, nor-binaltorphimine]
Ki (cloned mouse κ receptor): 0.027 nM

CC(C)=CCN1CCC2(C)c3cc(O)ccc3CC1C2C (centres unmarked) [pentazocine]
Ki (cloned mouse δ receptor): 31 nM
Ki (cloned rat μ receptor): 5.7 nM

COC(=O)/C=C/C(=O)N[C@@H]1CC[C@@]2(O)[C@H]3Cc4ccc(O)c5c4[C@@]2(CCN3CC2CC2)[C@H]1O5 [β-FNA, β-funaltrexamine]
Ki (cloned mouse δ receptor; [11]): 48 nM
Ki ([9]; read-out: Binding potencies (Ki-nM) for the cloned human μ opioid receptor [^3H] DAMGO): 0.29 nM
Ki (cloned mouse κ receptor; [12]): 2.8 nM
Ki (cloned rat μ receptor; [13]): 0.33 nM

D-Ala^2-deltorphin II
Binding to the cloned human receptor (inhibition of [3H]DAMGO binding), words [9]: did not bind

Dynorphin A (1–8)
Binding to the κ/δ2eloop chimera (κ/δ2eloop chimera): did not bind

Dynorphin A (1–17)
Binding to the κ/δ2eloop chimera (κ/δ2eloop chimera): did not bind

pertussis toxin [PTX]
Decrease of specific [3H]DAMGO labelling of the rat μ receptor [10]: 42+/−5%

β-Endorphin (human)
Effect on forskolin-stimulated cAMP formation, MOP2 (MOP2 [2]): no effect
